For this experiment, the system named is Dottersackgefäßsystem von Hühnerembryonen. The experiment can be described thus: animal or person. The settings on record: for Hemmung: time point not stated. The source says: Cyproheptadin (Peritol®) wird aufgrund seiner zentralen Wirkung als Appetitsstimulanz in der Klinik verwendet. Als Nebenwirkungen waren bisher im wesentlichen sedierende Effekte bekannt. […] Zur Wirkungsanalyse wurde die Gefäßentwicklung der Dottersackmembran von befruchteten Hühnereiern benutzt. Das Modell hat den Vorteil, daß die Entwicklung dieses primären Gefäßsystems der Hühnerembryonen Kapillaren erzeugt, die eine große Ähnlichkeit mit Tumorgefäßen haben. Diese Kapillaren sind stärker fenestriert und sind anatomisch den Tumorvaskularitäten ähnlich.
Bei 30 ex ovo bebrüteten Hühnereiern werden jeweils auf zwei Bereiche des Dottersackgefäßsystems 1,5 µl eines 3%igen Traganth-Gels, in dem Cyproheptadin in der zu untersuchenden Konzentration eingebracht wurde, appliziert. Bei weiterer Bebrütung in einem Sterilinkubator bei 37°C und 85% Luftfeuchtigkeit entwickeln sich die pre- bzw. postkapillären Gefäßstrukturen der Dottersackvaskularitäten, die 9 h und 24 h post applicationem semiquantitativ bewertet werden.
Ebenfalls nach 9 h und 24 h werden die Applikationsstellen bewertet.

For `CN1CCC(=C2c3ccccc3C=Cc3ccccc32)CC1` [Cyproheptadin], the “Wirkung 24 h nach Applikation” value (24 h values compared with 9 h values) was “in leicht abgeschwächter Form noch vorhanden”. Moreover, for the setting “Gallus gallus, read-out: maximale Wirkungsstärke”, the Emax was 76%. Where the note is “effective concentration range in words”, the “Hemmung der Dottersackangiogenese, wirksame Konzentrationen” value is recorded as “in nanomolaren Konzentrationen”. The Hemmung by setting is: (single substance at its IC 25 concentration) 20,3%; (single substance at its IC 50 concentration) 37,9%; (single substance at its IC 75 concentration) 65,8%; (single substance at its IC 100 concentration) 76,6%. For the same compound, where the note is “very high concentrations”, the “Angiogenese bei sehr hohen Konzentrationen” value is “totale Verhinderung einer Angiogenese”.
